{"source": "paper PMC9693575", "about": "“Isopropyl Amino Acid Esters Ionic Liquids as Vehicles for Non-Steroidal Anti-Inflammatory Drugs in Potential Topical Drug Delivery Systems with Antimicrobial Activity” (International Journal of Molecular Sciences, 2022)", "key": {"[1]": {"test_system": "Micrococcus Luteus", "assay": "Disc diffusion antimicrobial susceptibility test, Micrococcus luteus", "assay_type": "cell-based", "parameters": "key to Inhibition diameter: -: no growth of the organism", "conditions": "for zone of inhibition at 400000 µg/mL: solution transferred to disc 400 mg cm^−3; for zone of inhibition at 600000 µg/mL: solution transferred to disc 600 mg cm^−3; for zone of inhibition at 800000 µg/mL: solution transferred to disc 800 mg cm^−3"}, "[2]": {"test_system": "Staphylococcus epidermidis", "assay": "Disc diffusion antimicrobial susceptibility test, Staphylococcus epidermidis", "assay_type": "cell-based", "parameters": "key to Inhibition diameter: -: no growth of the organism", "experimental": "(§1) The plates were incubated for 24 h at 37 °C."}, "[3]": {"assay": "n-octanol-water partition coefficient (logP), shake flask method", "assay_type": "physicochemical"}, "[4]": {"test_system": "Escherichia coli", "assay": "Disc diffusion antimicrobial susceptibility test, Escherichia coli", "assay_type": "cell-based", "parameters": "key to Inhibition diameter: -: no growth of the organism", "experimental": "as §1"}, "[5]": {"assay": "pKa / pKB by potentiometric acid-base titration and formation constant log(KS)", "experimental": "Determination of formation constant pKs\nZabrze, Poland). For the measurement of pKA acids, 0.1 M NaOH was used. In order to\nester hydrochloride, HCl aqueous solution, was added in an amount that allowed reach-\nAfter that, an acid-base titration was made out by adding dropwise 5 mM"}, "[6]": {"assay": "physchem", "text": "This study aims to compare the influence of amino acid structure on the physicochemical properties of NSAID salts with the isopropyl ester of amino acids."}, "[7]": {"assay": "Thermogravimetric analysis (thermal stability)", "experimental": "The thermal stabilities of the obtained NSAIDs isopropyl ester amino acid salts were investigated. […] The beginning of thermal degradation was evaluated based on the value of onset of the TG curve, which occurs in the first phase of the process. […]\nThermogravimetric analysis (TG)\nThermogravimetric analysis was carried out using Netzsch Proteus Thermal Analy- […]\nSamples of 5–8 mg were loaded in Al2O3 […]\nment was performed in an air atmosphere (25 cm3min−1) with nitrogen flow (10 cm3min−1) […]\nDifferential scanning calorimetry (DSC)\nPhase transformation temperatures were determined on a PerkinElmer DSC-7 (Rot-gau, Germany). The samples of 3–5 mg were loaded on the aluminum pan with a crimped lid. Measurements were carried out in a nitrogen atmosphere (20 cm3 min-1). The rate of heating/cooling was 5°C min-1. […]\ntained for 30 min inside the furnace, then cooled to 0°C to condition the sample and the crucible. After that, heating was conducted to the specified temperature, followed by cool-ing. Unless otherwise stated, two complete cycles of heating and cooling were performed.\nThe specified maximum temperature was individual for each compound, determined from TG analysis, and it was at least 10°C lower than the onset decomposition tempera-ture. Temperatures reported from DSC data are curve peaks, the melting points being endothermic upon heating and crystallization point being exothermic upon cooling. Lead, indium, tin, and zinc were used as standards to calibrate the temperature. Indium was used for enthalpy measurement calibration. […]"}, "[8]": {"conditions": "Micrococcus luteus, 24 h, read-out: Inhibition diameter"}, "[9]": {"conditions": "solution transferred to disc 25 mg cm^−3"}, "[10]": {"conditions": "solution transferred to disc 50 mg cm^−3"}, "[11]": {"conditions": "solution transferred to disc 100 mg cm^−3"}, "[12]": {"conditions": "solution transferred to disc 200 mg cm^−3"}, "[13]": {"conditions": "solution transferred to disc 400 mg cm^−3"}, "[14]": {"conditions": "solution transferred to disc 600 mg cm^−3"}, "[15]": {"conditions": "solution transferred to disc 1000 mg cm^−3"}}, "note": "Where two headings read alike, the source gives them in different places.", "data": [{"smiles": "CC(C(=O)O)c1cccc(C(=O)c2ccccc2)c1", "note": "(racemic) [KETO, (R,S)-ketoprofen, reference compound]", "values": [{"measurement": "zone of inhibition at 25000 µg/mL", "setting": "[1]; Micrococcus luteus, 24 h, solution transferred to disc 25 mg cm^−3, read-out: Inhibition diameter", "value": "8.3 ± 0.3", "unit": "mm"}, {"measurement": "zone of inhibition at 50000 µg/mL", "setting": "[1]; Micrococcus luteus, 24 h, solution transferred to disc 50 mg cm^−3, read-out: Inhibition diameter", "value": "9.6 ± 0.2", "unit": "mm"}, {"measurement": "zone of inhibition at 100000 µg/mL", "setting": "[1]; Micrococcus luteus, 24 h, solution transferred to disc 100 mg cm^−3, read-out: Inhibition diameter", "value": "10.2 ± 0.2", "unit": "mm"}, {"measurement": "zone of inhibition at 200000 µg/mL", "setting": "[1]; Micrococcus luteus, 24 h, solution transferred to disc 200 mg cm^−3, read-out: Inhibition diameter", "value": "11.1 ± 0.4", "unit": "mm"}, {"measurement": "zone of inhibition at 400000 µg/mL", "setting": "[1]; [8]", "value": "12.5 ± 0.2", "unit": "mm"}, {"measurement": "zone of inhibition at 600000 µg/mL", "setting": "[1]; [8]", "value": "13.3 ± 0.2", "unit": "mm"}, {"measurement": "zone of inhibition at 800000 µg/mL", "setting": "[1]; [8]", "value": "14.2 ± 0.1", "unit": "mm"}, {"measurement": "Inhibition diameter", "setting": "[2]; [9]", "value": "-"}, {"measurement": "Inhibition diameter", "setting": "[2]; [10]", "value": "-"}, {"measurement": "Inhibition diameter", "setting": "[2]; [11]", "value": "-"}, {"measurement": "Inhibition diameter", "setting": "[2]; [12]", "value": "-"}, {"measurement": "Inhibition diameter", "setting": "[2]; [13]", "value": "-"}, {"measurement": "Inhibition diameter", "setting": "[2]; [14]", "value": "-"}, {"measurement": "Inhibition diameter", "setting": "[2]; solution transferred to disc 800 mg cm^−3", "value": "-"}, {"measurement": "Inhibition diameter", "setting": "[2]; [15]", "value": "-"}, {"measurement": "logP", "setting": "[3]; n-octanol-water, shake flask, read-out: LogP", "value": "1.577 ± 0.01"}, {"measurement": "Inhibition diameter", "setting": "[4]; [9]", "value": "-"}, {"measurement": "Inhibition diameter", "setting": "[4]; [10]", "value": "-"}, {"measurement": "Inhibition diameter", "setting": "[4]; [11]", "value": "-"}, {"measurement": "Inhibition diameter", "setting": "[4]; [12]", "value": "-"}, {"measurement": "Inhibition diameter", "setting": "[4]; [13]", "value": "-"}, {"measurement": "Inhibition diameter", "setting": "[4]; [14]", "value": "-"}, {"measurement": "Inhibition diameter", "setting": "[4]; [15]", "value": "-"}, {"measurement": "pKa", "setting": "[5]", "value": 4.11}]}, {"smiles": "O=C(O)c1ccccc1O", "note": "[SA, salicylic acid, reference compound]", "values": [{"measurement": "zone of inhibition at 400000 µg/mL", "setting": "[1]; [8]", "value": "7.4 ± 0.4", "unit": "mm"}, {"measurement": "zone of inhibition at 600000 µg/mL", "setting": "[1]; [8]", "value": "8.7 ± 0.8", "unit": "mm"}, {"measurement": "zone of inhibition at 800000 µg/mL", "setting": "[1]; [8]", "value": "9.4 ± 0.8", "unit": "mm"}, {"measurement": "Inhibition diameter", "setting": "[1]; [9]", "value": "-"}, {"measurement": "Inhibition diameter", "setting": "[1]; [10]", "value": "-"}, {"measurement": "Inhibition diameter", "setting": "[1]; [11]", "value": "-"}, {"measurement": "Inhibition diameter", "setting": "[1]; [12]", "value": "-"}, {"measurement": "concentration from which the inhibitory effect was observed", "setting": "[2]; S. epidermidis", "value": "≥ 400", "unit": "mg cm^−3"}, {"measurement": "zone of inhibition at 400000 µg/mL", "setting": "[2]; Staphylococcus epidermidis, 24 h, solution transferred to disc 400 mg cm^−3, read-out: Inhibition diameter", "value": "6.2 ± 0.1", "unit": "mm"}, {"measurement": "zone of inhibition at 600000 µg/mL", "setting": "[2]; Staphylococcus epidermidis, 24 h, solution transferred to disc 600 mg cm^−3, read-out: Inhibition diameter", "value": "7 ± 0.2", "unit": "mm"}, {"measurement": "zone of inhibition at 800000 µg/mL", "setting": "[2]; Staphylococcus epidermidis, 24 h, solution transferred to disc 800 mg cm^−3, read-out: Inhibition diameter", "value": "8.6 ± 0.3", "unit": "mm"}, {"measurement": "Inhibition diameter", "setting": "[2]; [9]", "value": "-"}, {"measurement": "Inhibition diameter", "setting": "[2]; [10]", "value": "-"}, {"measurement": "Inhibition diameter", "setting": "[2]; [11]", "value": "-"}, {"measurement": "Inhibition diameter", "setting": "[2]; [12]", "value": "-"}, {"measurement": "logP", "setting": "[3]", "value": "1.32 ± 0.018"}, {"measurement": "Solubility in Water, as active substance", "setting": "[6]", "value": "3.795 ± 0.004", "unit": "gAS dm^−3"}, {"measurement": "Solubility in Phosphate Buffer pH = 5.4, as active substance", "setting": "[6]; pH 5.4", "value": "3.862 ± 0.005", "unit": "gAS dm^−3"}, {"measurement": "solubility thermodynamic", "setting": "[6]; pH 5.4, aqueous buffer", "value": "3862 ± 5", "unit": "µg/mL"}, {"measurement": "Solubility in Phosphate Buffer pH = 7.4, as active substance", "setting": "[6]; pH 7.4", "value": "5.757 ± 0.024", "unit": "gAS dm^−3"}, {"measurement": "solubility thermodynamic", "setting": "[6]; pH 7.4, aqueous buffer", "value": "5757 ± 24", "unit": "µg/mL"}, {"measurement": "solubility thermodynamic", "setting": "[6]; water", "value": "3795 ± 4", "unit": "µg/mL"}, {"measurement": "zone of inhibition at 200000 µg/mL", "setting": "[4]; Escherichia coli, 24 h, solution transferred to disc 200 mg cm^−3, read-out: Inhibition diameter", "value": "6.1 ± 0.1", "unit": "mm"}, {"measurement": "zone of inhibition at 400000 µg/mL", "setting": "[4]; Escherichia coli, 24 h, solution transferred to disc 400 mg cm^−3, read-out: Inhibition diameter", "value": "6.4 ± 0.1", "unit": "mm"}, {"measurement": "zone of inhibition at 600000 µg/mL", "setting": "[4]; Escherichia coli, 24 h, solution transferred to disc 600 mg cm^−3, read-out: Inhibition diameter", "value": "11 ± 0.8", "unit": "mm"}, {"measurement": "Inhibition diameter", "setting": "[4]; [9]", "value": "-"}, {"measurement": "Inhibition diameter", "setting": "[4]; [10]", "value": "-"}, {"measurement": "Inhibition diameter", "setting": "[4]; [11]", "value": "-"}, {"measurement": "TTGonset, the onset of the thermal degradation", "setting": "[7]", "value": 146.2, "unit": "°C"}, {"measurement": "TDTGmax, maximum decomposition temperature", "setting": "[7]; DTG, air atmosphere, 10 °C min−1", "value": 198.8, "unit": "°C"}]}]}
